As a reminder, the half-life is how long it takes for the measured level to halve. The term fraction unbound denotes free concentration divided by total concentration. Low readings indicate extensive binding, high ones weak binding. For orientation: AUC(0-inf) means the area under the concentration-time curve extrapolated to infinity. As a reminder, the Cmax is the peak of the concentration-time curve. Usually clearance stands for the volume of plasma or blood freed of the substance per unit of time.

For data set [1], the target named is BAX (Homo sapiens, UniProt Q07812). The data set is described as follows: liposome release assay, tBID-induced BAX activation in liposomal membranes. The data set is classed as biochemical. The text has this: FIG. 8. BAI compounds tested in BAX inhibition assay using tBID-induced BAX activation in liposomal membranes.
These compounds were hypothesized, but never shown, to work through BAX inhibition (19, 20). Accordingly, it was first investigated whether several of these small molecules inhibit BAX-mediated permeabilization of artificial membranes of similar lipid composition to the outer mitochondrial membrane (OMM). A liposome release assay (21), in which liposomes that contain a fluorophore are created, was used. Incorporation of tBID-activated BAX into the liposome membrane stimulates release of the fluorophore, providing a system to study BAX-mediated membrane permeabilization in isolation of other mitochondrial and cellular factors.
IC50 were predicted based on of “Normalized inhibition values” correlated with measured IC50 values.

Data set [2] deals with T1, BAX (Mus musculus, UniProt Q07813).
T1 construct: from tissue; host or cells: heart (myocardium) after 45 min ischemia/6 h reperfusion
The data set is described as follows: BAX activation during MI/R in vivo, 6A7 antibody immunostaining. As to conditions: 45 min ischemia/6 h reperfusion, 6A7 immunostaining. On the procedure:
Accordingly, the ability of BAI-A1 to inhibit BAX activation during MI/R was tested in vivo (FIG. 7). […] The pharmacokinetics of BAI-A1 were measured in the mouse by injecting 1 mg/kg into a cohort of mice and harvesting plasma and heart tissue 0, 1, 6, and 24 h.

Data set [3] relates to neonatal rat cardiomyocytes (NRCM). The data set can be described thus: hypoxia-induced death of primary neonatal cardiomyocytes (calcein AM / ethidium homodimer). As to conditions: for inhibition of hypoxia-induced neonatal cardiomyocyte death: percentage of EthD positive cells. The data set is classed as cell-based. On the procedure:
(§1) FIG. 6A-6C. […] Cell death was assessed using calcein AM (alive) and ethidium homodimer (dead) staining. (C) BAI1 inhibits hypoxia-induced loss of inner mitochondrial membrane potential (Δψm) in neonatal cardiomyocytes.
FIG. 20A-20B. […] Quantification of percentage of TUNEL positive cells. […] BAI-1 dose response. Percentage of dead cells represents percentage of ethidium homodimer-1 (EthD) positive cells.
FIG. 21A-21C. BAI-A1, BAI-A2 and BAI-A21 inhibit cardiomyocyte necrotic cell death. NRCM were pre-treated with varying concentrations of BAI-A1 (A), BAI-A2 (B) or BAI-A21 (C) and cultured under normoxic or hypoxic conditions. Percentage of dead cells represents percentage of EthD positive cells.

Data set [4] is described as follows: pharmacokinetics of BAI-A1 in the mouse. The class given is in vivo. As to conditions: other: injection (type of injection not given), 1 mg/kg. On the procedure:
Accordingly, the ability of BAI-A1 to inhibit BAX activation during MI/R was tested in vivo (FIG. 7). […] This was assessed following 45 min ischemia/6 h reperfusion, the time point that BAX is activated maximally in the absence of drug. It was concluded that BAI-A1 can access myocardial cells and is effective at inhibiting BAX activation during MI/R in vivo. The pharmacokinetics of BAI-A1 were measured in the mouse by injecting 1 mg/kg into a cohort of mice and harvesting plasma and heart tissue 0, 1, 6, and 24 h.

The nature of data set [5]: plasma protein binding, mouse plasma. The class given is in vitro ADME.
Data set [6] can be described thus: pharmacokinetic properties, half-life in plasma. The class given is in vivo.
Data set [7] addresses recombinant, purified BAX (Homo sapiens, UniProt Q07812). The data set can be described thus: BAX binding by 1H-NMR and 15N-1H HSQC NMR. As to conditions: not shown.
In data set [8] the test system is Adult rat cardiomyocytes. The data set can be described thus: hypoxia/reoxygenation-induced death of adult cardiomyocytes. The data set is classed as cell-based. On the procedure:
as §1
FIG. 22A-22B. […] Percentage of dead cells represents percentage of EthD positive cells.

Data set [9] concerns mouse embryonic fibroblasts. The data set can be described thus: apoptosis in mouse embryonic fibroblasts (FIG. 18). The data set is classed as cell-based. As to conditions: doxorubicin-induced per text, STS or ABT-737 per legend. The text has this:
FIG. 18. […] Apoptosis was induced with either staurosporine (STS) or pro-apoptotic ABT-737 drug.

The test system of data set [10] is mouse embryonic fibroblasts. The data set is described as follows: TNFα-induced BAX-mediated apoptotic cell death. The class given is cell-based. As to conditions: data not shown.
Data set [11] is described as follows: acute doxorubicin heart failure model in mice. The data set is classed as in vivo, mouse. As to conditions: doxorubicin 20 mg/kg i.p. single; inhibitor 2 mg/kg i.p. single.
Data set [12] can be described thus: chronic doxorubicin-induced cardiomyopathy mouse model. The data set is classed as in vivo. Particulars: doxorubicin 3 mg/kg IP x8, inhibitor 2 mg/kg. The text has this: FIG. 25A-25B. […] (A) Hearts were collected from mice in the chronic doxorubicin model and sectioned to stain for the apoptosis marker, TUNEL. Percentage of TUNEL positive nuclei per field. (B) Hearts were collected from mice in the chronic doxorubicin model and sectioned to immunostain for HMGB1, loss of which indicates necrosis. Percentage of nuclei that lost HMGB1 per field.
Patients typically receive several “cycles” of doxorubicin administered at lower doses. The exact protocol depends on the cancer being treated. For example, some leukemias are treated with 4 cycles of 60 mg/m^2 (which would be the equivalent of 1.5 mg/kg) IV administered every 21-28 days. […] Based on this experience, a chronic protocol was used in which mice receive 3 mg/kg doxorubicin IP every other day×8 doses (i.e. over a two-week period) for a cumulative dose of 24 mg/kg.

Data set [13] is described as follows: BAI-A22 pharmacokinetics in rats, non-compartmental analysis. The class given is in vivo. As to conditions: rat, plasma, iv, male Sprague Dawley rats, 1 mg/kg intravenously, NCA. On the procedure: FIG. 11A-11B. BAI-A22 pharmacokinetics. BAI-A22 was injected intravenously in male Sprague Dawley® rats at 1 mg/kg dose and blood plasma and heart tissue were collected at different time points, and drug levels measured by LC-MS/MS. (A) Average BAI-A22 concentrations in blood plasma. (B) Average BAI-A22 concentrations in heart tissue.
Pharmacokinetic parameters from non-compartmental analysis using WinNonLin software. C0: maximum plasma concentration extrapolated to t=0; tmax: time of maximum plasma concentration; t1/2: half-life; MRTlast: mean residence time, calculated to the last observable time point; CL: clearance; Vss: steady state volume of distribution; AUClast: area under the curve, calculated to the last observable time point; AUC∞: area under the curve, extrapolated to infinity. Materials and Methods for the Chemical Syntheses

The target in data set [14] is T1, BAX. The data set can be described thus: STS-induced BAX translocation to mitochondria (immunostaining of BAX puncta). The class given is cell-based. Particulars: data not shown. On the procedure:
A key event in BAX activation is exposure of α helix 9 containing a transmembrane domain that inserts tightly into the outer mitochondrial membrane (OMM). BAX insertion into the OMM can be assessed by treating isolated mitochondria with strong alkali, which separates loosely attached proteins from mitochondria but fails to extract membrane-inserted proteins. […] One important result of BAX conformational activation is its translocation from cytosol to mitochondria. […] Translocation was assessed by immunostaining for mitochondrial BAX puncta. […] (Data not shown.)

The nature of data set [15]: plasma protein binding, rats. The class given is in vitro ADME. As to conditions: rat.
Setting [16] is: liposome release, minimum of 4 inhibitor concentrations around the IC50, read-out: Measured IC 50/μM.
Where [17] appears, read: predicted from normalized inhibition values (5 and 10 μM, normalized to BAI1) correlated with measured IC50 values, read-out: Predicted IC50/μM.

Where two headings read alike, the source gives them in different places. A value given as a limit tells only on which side of the number the result lay.

T1 sequence (Q07813 whole entry, the tested form may be a part): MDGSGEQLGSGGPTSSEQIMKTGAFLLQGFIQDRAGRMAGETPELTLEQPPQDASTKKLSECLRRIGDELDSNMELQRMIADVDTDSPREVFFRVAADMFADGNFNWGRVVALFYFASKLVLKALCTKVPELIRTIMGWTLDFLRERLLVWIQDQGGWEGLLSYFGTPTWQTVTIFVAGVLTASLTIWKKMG
Sequence of BAX (Homo sapiens, UniProt Q07812) (Q07812 whole entry): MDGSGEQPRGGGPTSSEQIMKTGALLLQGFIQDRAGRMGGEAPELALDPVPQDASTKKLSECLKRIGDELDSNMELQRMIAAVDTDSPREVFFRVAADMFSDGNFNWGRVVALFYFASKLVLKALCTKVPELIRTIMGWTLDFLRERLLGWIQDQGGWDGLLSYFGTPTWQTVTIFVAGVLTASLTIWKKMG
Sequence of recombinant, purified BAX (Q07812 whole entry): as above

With `OC(CN1CCN(CCCc2ccccc2)CC1)Cn1c2ccc(Br)cc2c2cc(Br)ccc21` (stereo not drawn) [BAI-3], the “inhibition of membrane permeabilization induced by tBID-activated BAX” value in data set [1] (FIG. 2) is “not effective to inhibit tBID-induced BAX activation”. The “fluorophore release by compound alone” value in data set [1] (compound alone, without BAX/tBID) was “do not stimulate fluorophore release”.
As for `OC(CN1CCNCC1)Cn1c2ccccc2c2ccccc21` (stereo not drawn) [BAI-A1], the “BAX conformational activation in vivo” value in data set [2] is “potently blocks BAX conformational activation”. Moreover, the “ability to protect neonatal cardiomyocytes against hypoxia, versus BAI-1” value in data set [3] (not shown) is “only modestly decreased”. Also, the “inhibition of hypoxia-induced neonatal cardiomyocyte death” value in data set [3] was “inhibit necrosis in cardiomyocytes in a dose-dependent manner”. For the same molecule, the half-life was about 210 min in data set [4] (heart tissue, read-out: half-life in heart tissue (converted)); about 210 min in data set [4] (plasma, read-out: half-life in plasma (converted)); 210 min in [6]. The fraction unbound in [5] was 0.106. The “BAX binding relative to BAI-1” value in data set [7] is recorded as “less BAX binding than BAI-1”. The IC50 in [1] (setting [16]) was 40 µM; in data set [1] (setting [17]), over 20 µM. The “inhibition of adult cardiomyocyte necrosis” value in [8] (hypoxia and reoxygenation (H/R)) was “inhibit necrosis in cardiomyocytes in a dose-dependent manner”. Moreover, the “ability to protect adult cardiomyocytes against hypoxia/reoxygenation, versus BAI-1” value in data set [8] (not shown) was “only modestly decreased”.
On to `OCCN(CCO)CC(O)Cn1c2ccc(Cl)cc2c2cc(Cl)ccc21` (stereo not drawn) [BAI-A9], for which, in [1] (setting [17]), the IC50 was 9.7 µM.
Same read-out and setting: the figure for `OCC(O)Cn1c2ccc(Br)cc2c2cc(Br)ccc21` (stereo not drawn) [BAI-A10] is 10.8 µM; for `O=C(O)CCn1c2ccc(Br)cc2c2cc(Br)ccc21` [BAI-A11] it is 10.4 µM; for `OCCNCC(O)Cn1c2ccc(Br)cc2c2cc(Br)ccc21` (stereo not drawn) [BAI-A12] it is 8.8 µM.
On to `CN1CCN(CC(O)CN2c3ccccc3Sc3ccccc32)CC1` (stereo not drawn) [BAI-A13], for which the figures for the IC50 in data set [1] (setting [16]) and in data set [1] (setting [17]) were 13 µM and 13.8 µM, respectively.
Take `OCCN(CCO)CC(O)CN1c2ccccc2Sc2ccccc21` (stereo not drawn) [BAI-A14]: the IC50 in [1] (setting [17]) is 15.3 µM.
In the case of `OCCN1CCN(CCCN2c3ccccc3Sc3ccccc32)CC1` [BAI-A15], the figures for the IC50 in data set [1] (setting [16]) and in [1] (setting [17]) were 6 µM and 11.7 µM, respectively.
For the molecule `OC(CN1CCNCC1)Cn1c2ccc(F)cc2c2cc(F)ccc21` (stereo not drawn) [BAI-A16], the IC50 in data set [1] (setting [16]) was determined as 18 µM.
Turning to `Cc1ccc2c(c1)c1cc(C)ccc1n2CC(O)CN1CCNCC1` (stereo not drawn) [BAI-A17], the IC50 in data set [1] (setting [16]) is 27 µM.
On the same count and under the same terms, the figure for `OC(CN1CCNCC1)Cn1c2ccc(C(F)(F)F)cc2c2cc(C(F)(F)F)ccc21` (stereo not drawn) [BAI-A18] is 15 µM.
In the case of `Cc1ccc(N(CC(O)CN2CCNCC2)c2ccc(C)cc2)cc1` (stereo not drawn) [BAI-A19], the “BAX conformational activation in vivo” value in data set [2] was “inhibition of BAX activation in vivo”. Moreover, the “inhibition of hypoxia-induced neonatal cardiomyocyte death” value in [3] is “potently inhibits primary neonatal cardiomyocyte death induced by hypoxia”. The IC50 in [1] (setting [16]) amounted to 26 µM.
For `Cc1cn(CC(O)CN2CCNCC2)c2ccccc12` (stereo not drawn) [BAI-A20], the “inhibition of hypoxia-induced neonatal cardiomyocyte death” value in data set [3] is given as “does not”. Besides, the IC50 in data set [1] (setting [16]) was over 100 µM.
Take `OC(CN1CCNCC1)CN(c1ccc(Br)cc1)c1ccc(Br)cc1` (stereo not drawn) [BAI-A21]: the “inhibition of hypoxia-induced neonatal cardiomyocyte death” value in data set [3] is “inhibit necrosis in cardiomyocytes in a dose-dependent manner”. For the same molecule, the IC50 in [1] (setting [16]) came out at 4.5 µM.
Take `OC(CN1CCNCC1)CN(c1ccccc1)c1ccc(Br)cc1` (stereo not drawn) [BAI-A22, 1-((4-bromophenyl)(phenyl)amino)-3-(piperazin-1-yl)propan-2-ol]: in [9], the “apoptosis in mouse embryonic fibroblasts” value was “inhibits doxorubicin-induced apoptosis in mouse embryonic fibroblasts”. The nuclear fragmentation result in [10] was “Nuclear fragmentation was also inhibited”. The “heart function (ejection fraction) in doxorubicin-treated mice” value in data set [11] was “therapeutically effective”. The “inhibition of hypoxia-induced neonatal cardiomyocyte death” value in data set [3] is recorded as “potently inhibits primary neonatal cardiomyocyte death induced by hypoxia”. Also, the half-life in [6] is 300 min. In [12], the “cardiac dysfunction (fractional shortening, ejection fraction, systolic wall thickening)” value is recorded as “significantly protected the heart from cardiac dysfunction”. Further, in data set [13] (parameter and unit are drawings, read-out: AUClast: area under the curve, calculated to the last observable time point), the AUC(0-t) was 390 ± 42.7 ng·h/mL. Besides, the MRT last in data set [13] (parameter and unit are drawings, read-out: MRTlast: mean residence time, calculated to the last observable time point) is 2.15 h. Also, the Tmax in [13] (parameter and unit are drawings, read-out: tmax: time of maximum plasma concentration) was determined as 0 h. Besides, the Vd in [13] (parameter is a drawing, read-out: Vss: steady state volume of distribution) was found to be 10.5 L/kg. In data set [13] (unit is a drawing), this molecule gave an AUC(0-inf) of 524 ng·h/mL, a Cmax of 318 ng/mL, a clearance of 31.8 mL/min/kg and a half-life of 302 min. Besides, the C0 in [13] (unit is a drawing, read-out: C0: maximum plasma concentration extrapolated to t=0) was 318 ng/mL. For the same molecule, in data set [1] (setting [16]), the IC50 stood at 11 µM. Besides, in [14], the “BAX translocation to the mitochondria” value was “A similar result was observed”. The molecule further had a fraction unbound in data set [15] of 0.044.

The values above are taken from US11938128B2, “Small molecule BAX inhibitors and uses thereof” (Albert Einstein College of Medicine, priority 2017, dated 2024).
